Experimental findings from US12338229B2, “Small molecule stimulators of steroid receptor coactivator-3 and methods of their use as cardioprotective and/or vascular regenerative agents” (BAYLOR COLLEGE OF MEDICINE, priority 2018, dated 2025) are described below.

Like-named read-outs stand apart in the source and are kept apart here.

In data set [1] the test system is mice after myocardial infarction. Briefly: Myocardial infarction model, permanent LAD ligation (echocardiography, histology, immunostaining, PET, EM). To be noted: six weeks post-MI, picrosirius red. Format: in vivo, ICR (CD1) mice. As for the experimental part: Model of heart failure in adult mice. To induce myocardial infarction (MI) in 8- to 10-week-old mice, the left anterior descending (LAD) artery was permanently ligated. Briefly, mice were anesthetized with 2% isoflurane and then intubated. The heart was exposed by performing a thoracotomy through the fourth or fifth intercostal space and an 8-0 nylon suture was tied around the LAD artery. 10 uls of Adenoviral SRC-3 (Ad-SRC-3) or adenoviral GFP (Ad-GFP) at a titre of 9×10^9 pfu/ml was injected into the anterior free wall near left ventricular descending coronary artery. To assess cell cycle entry, the analog 5-ethynyl-2′-deoxyuridine (EdU; 0.2 g/L, Santa Cruz, SC-284628A) was added to the drinking water for the 9 day duration of the experiment. Cell proliferation was measured using Click-iT EdU kit (Invitrogen, C10339). The initial dose of MCB-613 was administered intraperitoneally at 20 mg/kg 2 hours after surgery. Subsequent injections of the same dose were given for 6 additional days, and then repeated doses were given for 3 days at week 9 and week 16. Mice were harvested at indicated time points for analyses.
Echocardiography. Cardiac function was determined by echocardiography (VisualSonics, Vevo 2100, 40 Mhz-550S probe). After alignment in the transverse B-mode with the papillary muscles, cardiac function was measured on M-mode images.
Histological analysis. Whole hearts were fixed with 10% formalin, embedded in paraffin, and sectioned at 7 μm intervals. Each slide had […], which started at the apex and ended at the suture ligation site (approximately 30-50 slides). Sections at the papillary level (slides 20-30) were stained with Picrosirius red to identify areas of fibrosis. Infarct size was determined using a length-based approach.
Immunostaining analysis. Immunohistochemistry and immunofluorescent staining experiments were performed on FFPE (formalin-fixed and paraffin-embedded sections). TUNEL staining to detect apoptotic cells was done using the DeadEnd™ Fluorometric TUNEL System manufacturer's protocol (Promega, GS3250).
Model of heart failure in adult mice. To induce MI in eight- to ten-week-old mice, the left anterior descending (LAD) artery was permanently ligated. Briefly, mice were anesthetized with 2% isoflurane and then intubated. The heart was exposed by performing a thoracotomy through the fourth or fifth intercostal space and an 8-0 nylon suture was tied around the LAD. The initial dose of MCB-613 was administered intraperitoneally at 20 mg/kg, two hours after surgery. Subsequent injection at the same time of the day and same dose were given for six additional days, and then repeated doses were given for three days at week nine and week 16. Mice were harvested at the indicated time points for analyses.
Echocardiography. Cardiac function was determined by echocardiography (VisualSonics, Vevo 2100, 40 Mhz-550S probe). After alignment in the transverse B-mode with the papillary muscles, cardiac function was measured on M-mode images. Animal numbers for cardiac function in FIG. 11A are Day 0 control (17); MCB-613 (15), Day 1 control (10); MCB-613 (12), Day 14 […], Day 56 control (12); MCB-613 (15), Day 70 control (8); MCB-613 (10), Day 80 control (8); MCB-613 (11), Day 133 control (3); and MCB-613 (3).
Histological analysis. Whole hearts were fixed with 10% formalin, embedded in paraffin, and sectioned at 7 μm intervals. Each slide had three (3) to ten (10) sections, which started at the apex and ended at the suture ligation site (approximately 30-50 slides). Sections at the papillary level (slides 20-30) were stained with Picrosirius red to identify areas of fibrosis. Infarct size was determined using a length-based approach. TUNEL staining to detect apoptotic cells was performed using the DeadEnd™ Fluorometric TUNEL System (Promega, GS3250).
Electron Microscopy. […]

In data set [2] the test system is SRC-1, SRC-2 or SRC-3 fused with the DNA binding domain of Gal4. Briefly: Gal4 luciferase reporter (pG5-luc / pBIND-SRC) in HeLa cells. Format: cell-based. To be noted: pG5-luc + pBIND-SRC-1, -2 or -3. The source says:
The compounds described herein stimulate SRC intrinsic transcriptional activity. HeLa cells transfected with a Gal4 responsive luciferase reporter (pG5-luc) and a construct encoding SRC-1, SRC-2 or SRC-3 fused with the DNA binding domain of Gal4 (pBIND-SRC-1, pBIND-SRC-2 or pBIND-SRC-3) were exposed to treatments with compounds as described herein, including MCB-613, Compound 10-1, and Compound 10-2.

The test system of data set [3] is mice after myocardial infarction. Kind of data set: Progressive maximal exercise test, indirect calorimetry (VO2, VCO2). To be noted: after myocardial infarction. The format is in vivo. As for the experimental part: RER, VO2 and VCO2 measurements. Respiratory exchange ratio (RER), oxygen consumption (VO^2) and carbon dioxide expiration (VCO2) were measured by indirect calorimetry using a progressive maximal exercise test until mice reached exhaustion.
RER, VO2 and VCO2 measurements. RER, VO2 and VCO2 were measured by indirect calorimetry using a progressive maximal exercise test until mice reached exhaustion.

The conditions of data set [4]: mouse, in vivo.
Protocol: (§1) Each of the three compounds was dissolved in DMSO (20 mg/mL), mixed with 30% hydroxypropyl-β-cyclodextrin at a 1:9 ratio, and administered to the CD-1 mice intraperitoneally (ip) or orally (po) through a gavage. After compound administration, blood samples (3 mice per compound) were collected at nine time points, i.e., at 5 minutes, 0.25 hours, 0.5 hours, 1 hour, 2 hours, 4 hours, 8 hours, 12 hours, and 24 hours, through the tail vein. Plasma was isolated from these blood samples and the compound plasma concentrations were determined by HPLC-MS/MS. Pharmacokinetic parameters were calculated using the program PKSolver, an add-in program for use in analyzing pharmacokinetic and pharmacodynamics data analysis, as described in Zhang et al., Computer Methods and Programs in Biomedicine, 99: 306-314 (2010).
The nature of another data set: in vivo. To be noted: CD-1, mouse.

Protocol for in vivo: as §1

One may read the AUC(0-inf) as total exposure, with the tail of the curve extrapolated. The low end stands for less exposure, the high end for more exposure. Usually AUC(0-t) stands for the area under the concentration-time curve up to a stated or last time point. A low value points to less exposure. The Cmax is the maximum level reached in the sampled fluid or tissue. The term Tmax denotes the time at which the peak concentration occurs. Broadly, the half-life is the time in which the quantity being followed falls by half. Take `COc1ccccc1/C=C1\CN(CCC(C)C)C/C(=C\c2ccccc2OC)C1=O` [Compound 10-1, (3E,5E)-1-isopentyl-3,5-bis(2-methoxybenzylidene)piperidin-4-one]: in data set [1], the “infarct size vs saline control” value is recorded as “decrease in infarct size”. In addition, the “intrinsic transcriptional activity of SRCs (luciferase)” value in data set [2] is “selectively stimulates the intrinsic transcriptional activity of SRCs”. Also, the “cardiovascular fitness (VCO2, VO2, FIG. 9)” value in data set [3] is listed as “improves cardiovascular fitness after myocardial infarction”. Besides, the results for the Cl in data set [4] (ip) and in data set [4] (po) were 0.97 (mg)/(ng/mL)/h and 7.3 (mg)/(ng/mL)/h, respectively. Besides, the AUC(0-inf) in the data set “in vivo” (ip) was found to be 851 ng·h/mL; in the data set “in vivo” (po), 113 ng·h/mL. The exposure AUC(0-t) turned out to be 623 ng·h/mL in “in vivo” (ip) and 98.4 ng·h/mL in “in vivo” (po). Besides, the highest concentration (Cmax) stood at 357 ng/mL in “in vivo” (ip) and 53.2 ng/mL in the data set “in vivo” (po). Also, the Tmax in the data set “in vivo” (ip) worked out at 15 min; in “in vivo” (po), 30 min. Also, the half-life in the data set “in vivo” (ip, Terminal phase t1/2) was 1090 min; in the data set “in vivo” (ip, t1/2), 38.4 min; in “in vivo” (po, Terminal phase t1/2), 612 min; in the data set “in vivo” (po, t1/2), 72 min.

As for `COc1cccc(/C=C2\CN(CCC(C)C)C/C(=C\c3cccc(OC)c3)C2=O)c1` [Compound 10-2, (3E,5E)-1-isopentyl-3,5-bis(3-methoxybenzylidene)piperidin-4-one], in data set [2], the “intrinsic transcriptional activity of SRCs (luciferase)” value is “selectively stimulates the intrinsic transcriptional activity of SRCs”. In addition, the Cl in data set [4] (ip) was 1.7 (mg)/(ng/mL)/h; in data set [4] (po) it was 6.1 (mg)/(ng/mL)/h. For the same molecule, the total exposure AUC(0-inf) in the data set “in vivo” (ip) came to 482 ng·h/mL; in the data set “in vivo” (po), 135 ng·h/mL. In addition, the AUC(0-t) came to 334 ng·h/mL in “in vivo” (ip) and 131 ng·h/mL in the data set “in vivo” (po). Also, the Cmax was found to be 463 ng/mL in the data set “in vivo” (ip) and 182 ng/mL in the data set “in vivo” (po). In addition, the results for the time to peak (Tmax) in “in vivo” (ip) and in “in vivo” (po) were 4.8 min and 15 min, respectively. Further, the half-life in “in vivo” (ip, Terminal phase t1/2) is 954 min; in the data set “in vivo” (ip, t1/2), 15 min; in the data set “in vivo” (po, Terminal phase t1/2), 1630 min; in the data set “in vivo” (po, t1/2), 46.8 min.
